# Measurements taken from PMC12514245, “Impaired migration and lung invasion of human melanoma by a novel small molecule targeting the transmembrane domain of death receptor p75^NTR” (EMBO Molecular Medicine, 2025).
# Values joined by “and” are separate entries in the source; they are usually repeats but may differ in a detail not shown here. Identical values can stand only once.
# Columns and labels:
# A875 NT cells = assay: Filopodia per cell (phalloidin staining), A875 NT; format: cell-based, human; conditions: for Filopodia per cell, mean of the well: EXP1 NT; for Filopodia per cell, mean of experiment: EXP1-EXP3; for Filopodia per cell, mean of three experiments: mean of EXP1-3
# Protocol: For assessment of actin filaments, A875 cells were plated on glass coverslips in 24-well plate at a confluency of 3 × 10^4 cells/well. One day after plating, the cells were treated with 1 μM or 5 μM Np75-4A22 and NGF (100 ng/ml) or PBS for 24 h. Cells were fixed in 4% paraformaldehyde, permeabilized in 0.1% Triton-X-100, stained with Phalloidin-iFluor 488 (Abcam) at 1:2000 dilution and DAPI for 1 h. Coverslips were mounted and visualized in a laser confocal microscope.
# p75^NTR TMD = p75^NTR TMD (Homo sapiens, UniProt P08138); assay: 2D NMR (1H-15N TROSY-HSQC) chemical shift perturbation, p75NTR TMD in bicelles; conditions: 4 molar excess compound
# Chain of p75^NTR TMD (P08138 240-274 limits assumed): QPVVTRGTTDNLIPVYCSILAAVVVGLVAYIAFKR
# [1] = biological target: T1, p75^NTR I253A TMD mutant in COS cells (Rattus norvegicus, UniProt P07174, I253A); assay: Live cell homo-FRET anisotropy, I253A mutant p75NTR; format: cell-based; parameters: key to average anisotropy change, I253A: fold change vs mean of 6 pre-treatment time points (baseline ≈ 100); conditions: for average anisotropy change, I253A: 10 μM
# T1 construct: COS cells expressing full length, GFP-tagged rat p75^NTR; expressed in transfected cells; host or cells: COS-7
# T1 sequence (P07174 30-425 I253A): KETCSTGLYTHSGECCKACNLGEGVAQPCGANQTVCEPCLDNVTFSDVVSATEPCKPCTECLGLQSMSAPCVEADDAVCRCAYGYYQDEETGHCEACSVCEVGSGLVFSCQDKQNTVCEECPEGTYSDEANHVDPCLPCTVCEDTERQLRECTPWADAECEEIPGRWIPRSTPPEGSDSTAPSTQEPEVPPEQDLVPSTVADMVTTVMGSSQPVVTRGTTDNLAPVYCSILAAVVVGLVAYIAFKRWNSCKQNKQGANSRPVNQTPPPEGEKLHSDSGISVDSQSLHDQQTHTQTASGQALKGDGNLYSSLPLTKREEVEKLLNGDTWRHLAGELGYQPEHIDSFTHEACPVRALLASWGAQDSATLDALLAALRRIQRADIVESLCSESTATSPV
# Description: Previous real-time homo-FRET anisotropy studies by ours as well as other laboratories have shown that the intracellular death domains of p75^NTR are associated with each other (high FRET, low anisotropy state) under basal conditions (Vilar et al, [2009]; Sykes et al, [2012]), but neurotrophin binding induces transient separation of p75^NTR death domains (low FRET, high anisotropy state) manifested as oscillations in real-time anisotropy measurements (Lin et al, [2015]; Tanaka et al, [2016]; Goh et al, [2018]). COS cells expressing full length, GFP-tagged rat p75^NTR were treated with vehicle or Div17E5 and changes in anisotropy levels were recorded over time.
# Anisotropy imaging in COS-7 cells that were transfected with a rat p75^NTR-EGFP* fusion construct was done as previously described (Goh, Lin et al, [2018]). EGFP* carries a […] mutation rendering monomeric EGFP. Changes in anisotropy were expressed as fold change at each time point (every 30 s) in comparison to the mean of 6 time points obtained prior to addition of treatment. Images were acquired using Nikon Ti-E based live cell epi-fluorescence microscope and MetaMorph software and analyzed using MatLab from Mathworks.
# [2] = 1 uM 4A22 with 100 ng/ml NGF, A875 NT
# [3] = 5 uM 4A22 with 100 ng/ml NGF, A875 NT
smiles,measurement,setting,value
Cc1cccc(-c2cncc(Nc3ccc(Br)c(Cl)c3Cl)n2)c1C [Np75-4A22],"Filopodia per cell, mean of the well",A875 NT cells; 1 uM 4A22 + 100 ng/ml NGF,24.0741 and 41.2222 and 33.1667 and 30.2857
same,"Filopodia per cell, mean of experiment","A875 NT cells; 1 uM 4A22, A875 NT",30.1580 and 35.6954 and 33.9792
same,"Filopodia per cell, mean of three experiments","A875 NT cells; 1 uM 4A22, A875 NT",33.2775
same,"Filopodia per cell (Filopodia / cell), single image","A875 NT cells; 1 uM 4A22, A875 NT, per image of a well",35
same,"Filopodia per cell, mean of well","A875 NT cells; 1 uM 4A22, A875 NT",25.1429 and 30.1667 and 33.5 and 37.8333 and 34.4167
same,"Filopodia per cell, mean of the well",A875 NT cells; 1 uM 4A22,33.2292 and 40 and 23.375 and 24.0278
same,"Filopodia per cell, mean of experiment",A875 NT cells; [2],32.1872 and 28.1825 and 34.5833
same,"Filopodia per cell, mean of three experiments",A875 NT cells; [2],31.6510
same,"Filopodia per cell, mean of well",A875 NT cells; [2],24.6905 and 26.2143 and 30.7143 and 34.6667 and 32.8333 and 35 and 35.8333
same,"Filopodia per cell, mean of experiment","A875 NT cells; 5 uM 4A22, A875 NT",31.8244 and 33.2924 and 31.8750
same,"Filopodia per cell, mean of three experiments","A875 NT cells; 5 uM 4A22, A875 NT",32.3306
same,"Filopodia per cell, mean of well","A875 NT cells; 5 uM 4A22, A875 NT",30.0714 and 40.9286 and 30.3571 and 31.8125 and 34.9167 and 27.4167 and 31.1667 and 34
same,"Filopodia per cell, mean of the well",A875 NT cells; 5 uM 4A22,26.1667 and 28.75 and 43.1667 and 29.2143
same,"Filopodia per cell, mean of experiment",A875 NT cells; [3],28.5179 and 33.2679 and 34.0625
same,"Filopodia per cell, mean of three experiments",A875 NT cells; [3],31.9494
same,"Filopodia per cell, mean of well",A875 NT cells; [3],33.2976 and 34 and 40.1786 and 25.5952 and 29.75 and 31.9167 and 35.9167 and 38.6667
same,"filopodia per cell, compound alone",A875 NT cells; 1 or 5 μM,no effects per se
same,NGF-induced filopodia per cell,"A875 NT cells; 1 or 5 μM, NGF 100 ng/ml",completely abolished the effects of NGF
same,"chemical shift perturbations, p75NTR TMD",p75^NTR TMD,Significant chemical shifts
Oc1ccc(-c2cncc(Nc3ccc(Br)c(Cl)c3)n2)cc1 [Div17E5],"real-time homo-FRET anisotropy, Ile253 to Ala mutant",[1]; 10 µM,blunted homo-FRET changes
same,"average anisotropy change, I253A",[1]; 0 min after compound addition,101
same,"average anisotropy change, I253A",[1]; 0.5 min after compound addition,97
same,"average anisotropy change, I253A",[1]; 1 min after compound addition,99
same,"average anisotropy change, I253A",[1]; 1.5 min after compound addition,105
same,"average anisotropy change, I253A",[1]; 2 min after compound addition,103
same,"average anisotropy change, I253A",[1]; 2.5 min after compound addition,100
same,"average anisotropy change, I253A",[1]; 3 min after compound addition,100
same,"average anisotropy change, I253A",[1]; 3.5 min after compound addition,99
same,"average anisotropy change, I253A",[1]; 4 min after compound addition,102
same,"average anisotropy change, I253A",[1]; 4.5 min after compound addition,95
same,"average anisotropy change, I253A",[1]; 5 min after compound addition,101
same,"average anisotropy change, I253A",[1]; 5.5 min after compound addition,100
same,"average anisotropy change, I253A",[1]; 6 min after compound addition,103
same,"average anisotropy change, I253A",[1]; 6.5 min after compound addition,91
same,"average anisotropy change, I253A",[1]; 7 min after compound addition,103
same,"average anisotropy change, I253A",[1]; 7.5 min after compound addition,100
same,"average anisotropy change, I253A",[1]; 8 min after compound addition,96
same,"average anisotropy change, I253A",[1]; 8.5 min after compound addition,103
same,"average anisotropy change, I253A",[1]; 9 min after compound addition,93
same,"average anisotropy change, I253A",[1]; 9.5 min after compound addition,102
same,"average anisotropy change, I253A",[1]; 10 min after compound addition,101
same,"average anisotropy change, I253A",[1]; 10.5 min after compound addition,97
same,"average anisotropy change, I253A",[1]; 11 min after compound addition,105
same,"average anisotropy change, I253A",[1]; 11.5 min after compound addition,98
same,"average anisotropy change, I253A",[1]; 12 min after compound addition,97
same,"average anisotropy change, I253A",[1]; 12.5 min after compound addition,99
same,"average anisotropy change, I253A",[1]; 13 min after compound addition,104
same,"average anisotropy change, I253A",[1]; 13.5 min after compound addition,102
same,"average anisotropy change, I253A",[1]; 14 min after compound addition,96
same,"average anisotropy change, I253A",[1]; 14.5 min after compound addition,104
same,"average anisotropy change, I253A",[1]; 15 min after compound addition,99
same,"average anisotropy change, I253A",[1]; -0.5 min after compound addition,106
same,"average anisotropy change, I253A",[1]; -1 min after compound addition,94
same,"average anisotropy change, I253A",[1]; -1.5 min after compound addition,101
same,"average anisotropy change, I253A",[1]; -2 min after compound addition,103
same,"average anisotropy change, I253A",[1]; -2.5 min after compound addition,97
same,"average anisotropy change, I253A",[1]; -3 min after compound addition,99
